According to US20240228459A1 (Boundless Bio, Inc., priority 2022, published 2024):

Experiments:
Wee1 = Wee1 (Homo sapiens, UniProt P30291); assay: Wee1 pCDK1 activity (known assay); format: cell-based
Experimental: (§1) The Wee1 pCDK1 and PLK1 activities were determined using known assays.

PLK1 = PLK1 (Homo sapiens, UniProt P53350); assay: PLK1 activity (known assay); format: biochemical
Experimental: as §1

Chain of Wee1 (P30291 whole entry, species assumed): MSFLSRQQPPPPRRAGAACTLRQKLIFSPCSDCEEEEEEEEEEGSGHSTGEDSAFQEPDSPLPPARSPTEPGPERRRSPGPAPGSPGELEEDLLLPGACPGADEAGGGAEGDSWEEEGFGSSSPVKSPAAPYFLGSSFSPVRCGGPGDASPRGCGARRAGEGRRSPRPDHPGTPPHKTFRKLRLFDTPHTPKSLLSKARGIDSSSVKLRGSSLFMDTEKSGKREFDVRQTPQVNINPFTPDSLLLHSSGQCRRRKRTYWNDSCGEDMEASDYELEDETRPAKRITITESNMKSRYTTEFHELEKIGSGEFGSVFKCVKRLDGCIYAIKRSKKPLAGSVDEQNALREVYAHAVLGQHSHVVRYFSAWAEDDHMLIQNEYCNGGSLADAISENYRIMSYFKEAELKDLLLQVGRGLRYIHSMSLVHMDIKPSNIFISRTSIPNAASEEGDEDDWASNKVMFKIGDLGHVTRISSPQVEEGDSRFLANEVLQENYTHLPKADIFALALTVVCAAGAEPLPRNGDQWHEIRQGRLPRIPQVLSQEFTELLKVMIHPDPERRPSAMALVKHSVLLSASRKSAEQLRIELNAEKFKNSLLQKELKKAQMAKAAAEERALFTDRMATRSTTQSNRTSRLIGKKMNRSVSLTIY
Chain of PLK1 (P53350 whole entry, species assumed): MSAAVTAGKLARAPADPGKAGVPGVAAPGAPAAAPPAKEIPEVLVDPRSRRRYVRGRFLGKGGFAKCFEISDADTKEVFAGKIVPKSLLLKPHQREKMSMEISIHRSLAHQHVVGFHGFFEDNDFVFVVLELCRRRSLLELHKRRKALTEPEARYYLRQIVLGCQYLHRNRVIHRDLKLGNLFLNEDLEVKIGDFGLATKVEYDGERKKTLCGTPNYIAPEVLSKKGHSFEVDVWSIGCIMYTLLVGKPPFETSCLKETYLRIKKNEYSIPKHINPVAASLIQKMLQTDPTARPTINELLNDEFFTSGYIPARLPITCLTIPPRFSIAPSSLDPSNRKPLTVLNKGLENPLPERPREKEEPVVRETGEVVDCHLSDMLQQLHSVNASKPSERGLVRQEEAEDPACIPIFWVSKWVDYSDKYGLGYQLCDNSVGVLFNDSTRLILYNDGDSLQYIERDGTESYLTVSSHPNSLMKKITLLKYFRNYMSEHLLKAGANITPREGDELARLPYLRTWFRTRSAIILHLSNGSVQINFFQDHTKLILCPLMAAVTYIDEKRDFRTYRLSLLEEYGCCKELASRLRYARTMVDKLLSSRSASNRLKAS

Compound	IC50 (Wee1) [nM]	IC50 (PLK1) [nM]
CCC1(O)CCc2ccc(Nc3nc(Nc4ccc(N5CC6CN(C)CC6C5)cc4)ncc3C#N)nc21 (stereo not shown) [Example 34, 4-[(7-ethyl-7-hydroxy-5,6-dihydrocyclopenta[b]pyridin-2-yl)amino]-2-[4-(2-methyl-1,3,3a,4,6,6a-hexahydropyrrolo[3,4-c]pyrrol-5-yl)anilino]pyrimidine-5-carbonitrile]	100 to 250	≤ 100
CN1CC2CC1CN2c1ccc(Nc2ncc(C#N)c(Nc3cccc(N4CCCC4=O)n3)n2)cc1 (stereo not shown) [Example 70, 2-[4-(5-methyl-2,5-diazabicyclo[2.2.1]heptan-2-yl)anilino]-4-[[6-(2-oxopyrrolidin-1-yl)-2-pyridyl]amino]pyrimidine-5-carbonitrile]	250 to 500	≤ 100
CCC1(O)CCc2ccc(Nc3nc(Nc4ccc(N5CC6CCC5CN6C)cc4)ncc3C#N)nc21 (stereo not shown) [Example 24, 4-[(7-ethyl-7-hydroxy-5,6-dihydrocyclopenta[b]pyridin-2-yl)amino]-2-[4-(5-methyl-2,5-diazabicyclo[2.2.2]octan-2-yl)anilino]pyrimidine-5-carbonitrile]	≤ 100	≤ 100
COC1(C)CCc2ccc(Nc3nc(Nc4ccc(N5CCN(C)CC5)cc4)ncc3C#N)nc21 (stereo not shown) [Example 4, 4-[(7-methoxy-7-methyl-5,6-dihydrocyclopenta[b]pyridin-2-yl)amino]-2-[4-(4-methylpiperazin-1-yl)anilino]pyrimidine-5-carbonitrile]	250 to 500	≤ 100
CCC1(O)CCc2ccc(Nc3nc(Nc4ccc(C5CCNCC5)c(C)c4)ncc3C#N)nc21 (stereo not shown) [Example 18, 4-[(7-ethyl-7-hydroxy-5,6-dihydrocyclopenta[b]pyridin-2-yl)amino]-2-[3-methyl-4-(4-piperidyl)anilino]pyrimidine-5-carbonitrile]	250 to 500	≤ 100
C[C@@H]1CN(C)CCN1c1ccc(Nc2ncc(C#N)c(Nc3cccc(N4CCOC4=O)n3)n2)cc1 (racemic) [Example 10, 4-[[6-(2-oxooxazolidin-3-yl)-2-pyridyl]amino]-2-[4-[rac-(2R)-2,4-dimethylpiperazin-1-yl]anilino]pyrimidine-5-carbonitrile]	100 to 250	> 1000
CCC1(O)CCc2ccc(Nc3nc(Nc4ccc5c(c4)CN(C)CC5(C)C)ncc3C#N)nc21 (stereo not shown) [Example 48, 4-[(7-ethyl-7-hydroxy-5,6-dihydrocyclopenta[b]pyridin-2-yl)amino]-2-[(2,4,4-trimethyl-1,3-dihydroisoquinolin-7-yl)amino]pyrimidine-5-carbonitrile]	250 to 500	> 1000
CCC1(O)CCc2ccc(Nc3nc(Nc4ccc(N5CCN(C6CC6)CC5)cc4)ncc3C#N)nc21 (stereo not shown) [Example 23, 2-[4-(4-cyclopropylpiperazin-1-yl)anilino]-4-[(7-ethyl-7-hydroxy-5,6-dihydrocyclopenta[b]pyridin-2-yl)amino]pyrimidine-5-carbonitrile]	500 to 1000	≤ 100
CCC1(O)CCc2ccc(Nc3nc(Nc4ccc(N5CCN(C)CC5)nc4)ncc3C#N)nc21 (stereo not shown) [Example 14, 4-[(7-ethyl-7-hydroxy-5,6-dihydrocyclopenta[b]pyridin-2-yl)amino]-2-[[6-(4-methylpiperazin-1-yl)-3-pyridyl]amino]pyrimidine-5-carbonitrile]	> 1000	≤ 100
CCC1(O)CCc2ccc(Nc3nc(Nc4ccc(N5CCN(C)C6(CC6)C5)cc4)ncc3C#N)nc21 (stereo not shown) [Example 33, 4-[(7-ethyl-7-hydroxy-5,6-dihydrocyclopenta[b]pyridin-2-yl)amino]-2-[4-(4-methyl-4,7-diazaspiro[2.5]octan-7-yl)anilino]pyrimidine-5-carbonitrile]	> 1000	≤ 100
CCC1(O)CCc2ccc(Nc3nc(Nc4ccc(N5C[C@@H](C)N[C@@H](C)C5)cc4)ncc3C#N)nc21 (mixture of isomers) [Example 32, 4-[(7-ethyl-7-hydroxy-5,6-dihydrocyclopenta[b]pyridin-2-yl)amino]-2-[4-[rac-(3R,5S)-3,5-dimethylpiperazin-1-yl]anilino]pyrimidine-5-carbonitrile]	100 to 250	≤ 100
CCC1(O)CCc2ccc(Nc3nc(Nc4ccc5c(c4)CCNC5(C)C)ncc3C#N)nc21 (stereo not shown) [Example 25, 2-[(1,1-dimethyl-3,4-dihydro-2H-isoquinolin-6-yl)amino]-4-[(7-ethyl-7-hydroxy-5,6-dihydrocyclopenta[b]pyridin-2-yl)amino]pyrimidine-5-carbonitrile]	500 to 1000	> 1000
Cc1cc(Nc2ncc(C#N)c(Nc3cccc(N4CCCC4=O)n3)n2)cc2c1CN(C)CC2 [Example 73, 2-[(2,8-dimethyl-3,4-dihydro-1H-isoquinolin-6-yl)amino]-4-[[6-(2-oxopyrrolidin-1-yl)-2-pyridyl]amino]pyrimidine-5-carbonitrile]	≤ 100	> 1000
Cc1cc(Nc2ncc(C#N)c(Nc3cccc(N4CCCC4=O)n3)n2)ccc1C1CCN(C)CC1 [Example 62, 2-[3-methyl-4-(1-methyl-4-piperidyl)anilino]-4-[[6-(2-oxopyrrolidin-1-yl)-2-pyridyl]amino]pyrimidine-5-carbonitrile]	≤ 100	250 to 500
C[C@H]1CN(C)CCN1c1ccc(Nc2ncc(C#N)c(Nc3ccc4c(n3)C(C)(O)CC4)n2)cc1 (mixture of isomers) [Example 60, 4-[(7-hydroxy-7-methyl-5,6-dihydrocyclopenta[b]pyridin-2-yl)amino]-2-[4-[rac-(2S)-2,4-dimethylpiperazin-1-yl]anilino]pyrimidine-5-carbonitrile]	500 to 1000	500 to 1000
C[C@@H]1CN(C)CCN1c1ccc(Nc2ncc(C#N)c(Nc3cccc(N4CCCC4=O)n3)n2)cc1 [Example 64, 4-[[6-(2-oxopyrrolidin-1-yl)-2-pyridyl]amino]-2-[4-[(2R)-2,4-dimethylpiperazin-1-yl]anilino]pyrimidine-5-carbonitrile]	250 to 500	> 1000
CCC1(O)CCc2ccc(Nc3nc(Nc4ccc(COC)c(N5CCN(C)CC5)c4)ncc3C#N)nc21 (stereo not shown) [Example 50, 4-[(7-ethyl-7-hydroxy-5,6-dihydrocyclopenta[b]pyridin-2-yl)amino]-2-[4-(methoxymethyl)-3-(4-methylpiperazin-1-yl)anilino]pyrimidine-5-carbonitrile]	500 to 1000	100 to 250
CCC1(O)CCc2ccc(Nc3nc(Nc4ccc5c(c4)CCN(C)C5(C)C)ncc3C#N)nc21 (single isomer, unassigned) [Example 27]	≤ 100	> 1000
CCC1(O)CCCc2ccc(Nc3nc(Nc4ccc(N5CCN(C)CC5)cc4)ncc3C#N)nc21 (stereo not shown) [Example 1, 4-[(8-ethyl-8-hydroxy-6,7-dihydro-5H-quinolin-2-yl)amino]-2-[4-(4-methylpiperazin-1-yl)anilino]pyrimidine-5-carbonitrile]	100 to 250	≤ 100
CCC1(O)CCc2ccc(Nc3nc(Nc4ccc(C5CCN(CCO)CC5)c(C)c4)ncc3C#N)nc21 (stereo not shown) [Example 19, 4-[(7-ethyl-7-hydroxy-5,6-dihydrocyclopenta[b]pyridin-2-yl)amino]-2-[4-[1-(2-hydroxyethyl)-4-piperidyl]-3-methyl-anilino]pyrimidine-5-carbonitrile]	250 to 500	≤ 100
CCC1(O)CCc2ccc(Nc3nc(Nc4ccc(N5C6CCC5CN(C)C6)cc4)ncc3C#N)nc21 (single isomer, unassigned) [Example 38]	250 to 500	250 to 500
CCC1(O)CCc2ccc(Nc3nc(Nc4ccc(N5CCN(C)C(C)C5)cc4)ncc3C#N)nc21 (stereo not shown) [Example 52, 2-[4-(3,4-dimethylpiperazin-1-yl)anilino]-4-[(7-ethyl-7-hydroxy-5,6-dihydrocyclopenta[b]pyridin-2-yl)amino]pyrimidine-5-carbonitrile]	250 to 500	≤ 100
CN1CCN(c2ccc(Nc3ncc(C#N)c(Nc4cccc(N5CCCC5=O)n4)n3)cc2)CC1=O [Example 71, 2-[4-(4-methyl-3-oxo-piperazin-1-yl)anilino]-4-[[6-(2-oxopyrrolidin-1-yl)-2-pyridyl]amino]pyrimidine-5-carbonitrile]	500 to 1000	250 to 500
CN1CCc2ccc(Nc3ncc(C#N)c(Nc4cccc(N5CCCC5=O)n4)n3)cc2C1 [Example 74, 2-[(2-methyl-3,4-dihydro-1H-isoquinolin-7-yl)amino]-4-[[6-(2-oxopyrrolidin-1-yl)-2-pyridyl]amino]pyrimidine-5-carbonitrile]	100 to 250	> 1000
Cc1cc(Nc2ncc(C#N)c(Nc3cccc(N4CCCC4=O)n3)n2)cc2c1CCN(C)C2 [Example 75, 2-[(2,5-dimethyl-3,4-dihydro-1H-isoquinolin-7-yl)amino]-4-[[6-(2-oxopyrrolidin-1-yl)-2-pyridyl]amino]pyrimidine-5-carbonitrile]	≤ 100	100 to 250
CCC1(O)CCc2ccc(Nc3nc(Nc4ccc(C5CCN(C)CC5)c(C)c4)ncc3C#N)nc21 (stereo not shown) [Example 20, 4-[(7-ethyl-7-hydroxy-5,6-dihydrocyclopenta[b]pyridin-2-yl)amino]-2-[3-methyl-4-(1-methyl-4-piperidyl)anilino]pyrimidine-5-carbonitrile]	≤ 100	100 to 250
CN1CCc2cc(Nc3ncc(C#N)c(Nc4cccc(N5CCCC5=O)n4)n3)ccc2C1 [Example 72, 2-[(2-methyl-3,4-dihydro-1H-isoquinolin-6-yl)amino]-4-[[6-(2-oxopyrrolidin-1-yl)-2-pyridyl]amino]pyrimidine-5-carbonitrile]	≤ 100	> 1000
CCC1(O)CCc2ccc(Nc3nc(Nc4ccc5c(c4)CN(C)CC5)ncc3C#N)nc21 (stereo not shown) [Example 29]	250 to 500	100 to 250
CCC1(O)CCc2ccc(Nc3nc(Nc4ccc(N5C6CCC5CN(C)C6)cc4)ncc3C#N)nc21 (stereo not shown) [Example 36, 4-[(7-ethyl-7-hydroxy-5,6-dihydrocyclopenta[b]pyridin-2-yl)amino]-2-[4-(3-methyl-3,8-diazabicyclo[3.2.1]octan-8-yl)anilino]pyrimidine-5-carbonitrile]	250 to 500	> 1000
